In patent US5760230A, “4, 4'-bridged bis-2, 4-diaminoquinazolines” (Bayer Aktiengesellschaft, priority 1996, dated 1998):

Legend:
[1] = target: apamine binding sites (bovine cerebral membrane, hippocampus); experiment: Binding of ^125 I-apamine to bovine cerebral membrane; conditions: 30 pM ^125 I-apamine, calf hippocampus membranes, pH 7.4, 60 min on ice
Procedure: The compounds according to the invention are ligands for apamine-sensitive potassium channels. This can be shown by studying the affinity for apamine binding sites, e.g. in bovine cerebral membranes.
1) Binding of ^125 I-apamine to bovine cerebral membrane
Calf brains were obtained from the local abattoir. The hippocampus was prepared on ice and a membrane suspension was made up by homogenization twice in buffer (100 mM Tris-HCl, KCl 5 mM, pH 7.4) and centrifugation at 43,000×g. In a total volume of 500 μl, the incubation mixture contained 200 μg of membrane protein, 30 pM ^125 I-apamine and test substances in the concentration range 1×10^-9 to 1×10^-4 M. The non-specific binding of ^125 I-apamine was determined in the presence of 1×10^-7 M unlabelled apamine.
After preincubation for 30 min at room temperature (test substances and membrane homogenate), the samples were placed on ice for 10 min before the radioligand was added. The main incubation time was 60 min on ice. When the reaction time had elapsed, an excess of ice-cooled incubation buffer was added to each sample and the mixture was filtered with suction through cellulose acetate/nitrate membrane filters. The amount of bound ^125 I-apamine was measured with a gamma counter.

[2] = system: potassium channels (PC12 cells); experiment: Non-radioactive Rb^+ efflux assay for the identification of potassium channel modulators in PC12 cells; format: cell-based; conditions: Rattus norvegicus, PC-12, 10 min, test concentration of 10 μM, 50 mM KCl stimulation
Procedure: 2) Non-radioactive Rb^+ efflux assay for the identification of potassium channel modulators
The potassium in PC12 cells is exchanged with rubidium, which is not present in the cells. This exchange is performed by incubating the cells over a period of 4 h in a physiological buffer containing 5.4 mM RbCl without KCl. This rubidium subsequently serves as a tracer for potassium.
The cells laden with Rb^+ in this way are washed three times and then stimulated by depolarization with 50 mM KCl to open potassium channels (10 min), causing Rb^+ to flow out of the cells into the supernatant according to the concentration gradient.
The rubidium contents in the cell supernatant and in the residual cells after they have been lysed with 1% Triton X-100 are then determined by means of atomic absorption spectroscopy. The relative proportion of rubidium in the cell supernatant (=Rb^+ efflux) is used as a measure of the potassium channel activity.
The effect of substances on the channel activity is measured by co-incubating, the test substance over the ten-minute stimulation period and determining its effect on the Rb^+ efflux in the manner described above.

Structure (SMILES): CCN(CC)c1nc(NCCCCCNc2nc(N(CC)CC)nc3ccccc23)c2ccccc2n1 [Example 2]
- Ki [1]: 8 nM

Structure (SMILES): CCN(CC)c1nc(NCC2CCCC(CNc3nc(N(CC)CC)nc4ccccc34)C2)c2ccccc2n1 (mixture of isomers) [Example 1, 1,3-Bis-[(2-diethylamino-4-quinazolyl)-aminomethyl]-cyclohexane (cis/trans isomeric mixture)]
- Ki [1]: 160 nM
- inhibition at 10 µM [2]: 80%

Structure (SMILES): CCN(CC)c1nc(NCCCNc2nc(N(CC)CC)nc3ccccc23)c2ccccc2n1 [Example 3]
- inhibition at 10 µM [2]: 81%
